Here are results for 41 molecules from patent publication US9120770B2, “Substituted pyridine and pyrazine compounds as PDE4 inhibitors” (DART NEUROSCIENCE (CAYMAN) LTD., priority 2013, dated 2015).

The experiment concerns the target PDE4D3 (Homo sapiens, UniProt Q08499).

Chain of PDE4D3 (Q08499 1-673 isoform Q08499-2): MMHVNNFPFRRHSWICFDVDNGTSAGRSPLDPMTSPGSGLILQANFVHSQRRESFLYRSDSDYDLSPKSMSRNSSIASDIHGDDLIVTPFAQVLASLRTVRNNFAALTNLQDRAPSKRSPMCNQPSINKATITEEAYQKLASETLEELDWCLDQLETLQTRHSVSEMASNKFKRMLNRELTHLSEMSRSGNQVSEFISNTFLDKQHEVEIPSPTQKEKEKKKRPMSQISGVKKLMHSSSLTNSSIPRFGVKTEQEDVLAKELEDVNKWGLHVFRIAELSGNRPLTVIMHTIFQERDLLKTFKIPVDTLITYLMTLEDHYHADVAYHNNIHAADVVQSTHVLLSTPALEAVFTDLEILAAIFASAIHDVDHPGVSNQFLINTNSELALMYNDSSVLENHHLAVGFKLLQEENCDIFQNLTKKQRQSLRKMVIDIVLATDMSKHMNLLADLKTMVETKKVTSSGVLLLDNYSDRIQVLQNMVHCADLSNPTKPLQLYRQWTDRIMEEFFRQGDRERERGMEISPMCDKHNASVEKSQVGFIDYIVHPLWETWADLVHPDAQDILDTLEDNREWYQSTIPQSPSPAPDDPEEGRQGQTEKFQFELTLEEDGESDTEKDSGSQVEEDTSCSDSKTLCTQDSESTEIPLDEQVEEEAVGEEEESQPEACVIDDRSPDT

`COc1cccc(-c2cc(Cc3cnc(N)nc3)cnc2OC(F)F)c1` [Example 29, 5-{[6-(Difluoromethoxy)-5-(3-methoxyphenyl)pyridin-3-yl]methyl}pyrimidin-2-amine]: the concentration giving a half-maximal response (EC50) – broadly, the concentration giving half of the maximal effect – was under 100 nM.
The value for `COc1cccc(-c2cc(Cc3cnc(C(N)=O)nc3)cnc2OC(F)F)c1` [Example 115, 5-{[6-(Difluoromethoxy)-5-(3-methoxyphenyl)pyridin-3-yl]methyl}pyrimidine-2-carboxamide] was 100 to 1000 nM; that for `COc1ncc(Cc2cnc(C(N)=O)nc2)cc1-c1ccnc(OC(F)F)c1` [Example 120, 5-({5-[2-(Difluoromethoxy)pyridin-4-yl]-6-methoxypyridin-3-yl}methyl)pyrimidine-2-carboxamide] was 100 to 1000 nM; that for `COc1ncc(Cc2cnc(NCC(F)(F)F)nc2)cc1-c1cccc(Cl)c1` [Example 84, 5-{[5-(3-Chlorophenyl)-6-methoxypyridin-3-yl]methyl}-N-(2,2,2-trifluoroethyl)pyrimidin-2-amine] was under 100 nM.
The value for `COc1ncc(Cn2cnc(C)n2)cc1-c1cccc(Cl)c1` [Example 143, 3-(3-Chlorophenyl)-2-methoxy-5-[(3-methyl-1H-1,2,4-triazol-1-yl)methyl]pyridine] was under 100 nM; that for `CCOC(=O)c1cnn(Cc2cnc(OC)c(-c3cccc(Cl)c3)c2)c1` [Example 169, Ethyl 1-{[5-(3-chlorophenyl)-6-methoxypyridin-3-yl]methyl}-1H-pyrazole-4-carboxylate] was 1000 to 10000 nM.
In the case of `CCOc1ncc(Cn2cnc(C(=O)OC)n2)nc1-c1cccc(Cl)c1` [Example 197, Methyl 1-{[6-(3-chlorophenyl)-5-ethoxypyrazin-2-yl]methyl}-1H-1,2,4-triazole-3-carboxylate], the concentration giving a half-maximal response (EC50) was in the range of 1000 to 10000 nM.
Take `COc1ncc(Cn2cncn2)cc1-c1cccc(CO)c1` [Example 8, {3-[2-Methoxy-5-(1H-1,2,4-triazol-1-ylmethyl)pyridin-3-yl]phenyl}methanol]: the EC50 was 1000 to 10000 nM.
To `CCOc1ncc(Cn2cnc(CO)n2)cc1-c1cccc(Cl)c1` [Example 203, (1-((5-(3-Chlorophenyl)-6-ethoxypyridin-3-yl)methyl)-1H-1,2,4-triazol-3-yl)methanol] belongs under 100 nM; to `COc1ncc(Cc2cnoc2)nc1-c1cccc(Cl)c1` [Example 95, 3-(3-Chlorophenyl)-2-methoxy-5-(1,2-oxazol-4-ylmethyl)pyrazine], under 100 nM.
In turn, `COc1ncc(Cc2cnc(C#N)nc2)nc1-c1cccc(OC(F)F)c1` [Example 107, 5-({6-[3-(Difluoromethoxy)phenyl]-5-methoxypyrazin-2-yl}methyl)pyrimidine-2-carbonitrile] displayed an EC50 of under 100 nM.
Molecule `FC(F)Oc1ncc(Cc2cnc(NC3CC3)nc2)cc1-c1cccc(Cl)c1` [Example 91, 5-{[5-(3-Chlorophenyl)-6-(difluoromethoxy)pyridin-3-yl]methyl}-N-cyclopropylpyrimidin-2-amine] yielded a 50% effective concentration (EC50) of 100 to 1000 nM.
To `CCOc1ncc(Cn2cnc(N)n2)nc1-c1cccc(OC(F)F)c1` [Example 237, 1-((6-(3-(Difluoromethoxy)phenyl)-5-ethoxypyrazin-2-yl)methyl)-1H-1,2,4-triazol-3-amine] belongs 1000 to 10000 nM.
As to `CCOc1ncc(Cn2cnc(N)n2)cc1-c1cccc(OC(F)F)c1` [Example 226, 1-({5-[3-(Difluoromethoxy)phenyl]-6-ethoxypyridin-3-yl}methyl)-1H-1,2,4-triazol-3-amine], the concentration for a half-maximal effect (EC50) is under 100 nM.
With `CCOc1ncc(Cn2cnc(N)n2)cc1-c1ccnc(OC(F)F)c1` [Example 230, 1-({5-[2-(Difluoromethoxy)pyridin-4-yl]-6-ethoxypyridin-3-yl}methyl)-1H-1,2,4-triazol-3-amine], the concentration giving a half-maximal response (EC50) was under 100 nM.
On to `COc1ncc(Cn2cnc(C(F)(F)F)c2)cc1-c1cccc(Cl)c1` [Example 149, 3-(3-Chlorophenyl)-2-methoxy-5-{[4-(trifluoromethyl)-1H-imidazol-1-yl]methyl}pyridine], for which the EC50 was 1000 to 10000 nM.
In turn, `COc1ncc(Cc2cnc(C(N)=O)nc2)nc1-c1cccc(Cl)c1` [Example 123, 5-{[6-(3-Chlorophenyl)-5-methoxypyrazin-2-yl]methyl}pyrimidine-2-carboxamide] yielded a concentration for a half-maximal effect (EC50) of under 100 nM.
To `COc1ncc(Cn2cncn2)cc1-c1cncc(C)c1` [Example 6, 2-Methoxy-3-(5-methylpyridin-3-yl)-5-(1H-1,2,4-triazol-1-ylmethyl)pyridine] belongs over 10000 nM.
In turn, `COc1ncc(Cn2cnc(N)n2)cc1-c1cccc(Cl)c1` [Example 218, 1-{[5-(3-Chlorophenyl)-6-methoxypyridin-3-yl]methyl}-1H-1,2,4-triazol-3-amine] gave an EC50 of 100 to 1000 nM.
With `COC(=O)c1ncnn1Cc1cnc(OC)c(-c2cccc(Cl)c2)c1` [Example 140, Methyl 1-{[5-(3-chlorophenyl)-6-methoxypyridin-3-yl]methyl}-1H-1,2,4-triazole-5-carboxylate], the EC50 was over 10000 nM.
The molecule `COc1ncc(Cn2cnc(CO)n2)cc1-c1ccnc(OC(F)F)c1` [Example 205, [1-({5-[2-(Difluoromethoxy)pyridin-4-yl]-6-methoxypyridin-3-yl}methyl)-1H-1,2,4-triazol-3-yl]methanol] came in with an EC50 of under 100 nM.
Regarding `COc1ncc(Cn2cc(C(=O)O)cn2)cc1-c1cccc(Cl)c1` [Example 270, 1-{[5-(3-Chlorophenyl)-6-methoxypyridin-3-yl]methyl}-1H-pyrazole-4-carboxylic acid], the concentration giving a half-maximal response (EC50) was over 10000 nM.
Turning to `COc1ncc(Cc2cnc(NC(C)C)nc2)cc1-c1cccc(Cl)c1` [Example 77, 5-{[5-(3-Chlorophenyl)-6-methoxypyridin-3-yl]methyl}-N-(propan-2-yl)pyrimidin-2-amine], the EC50 is 1000 to 10000 nM.
For the molecule `COc1ncc(Cn2cc(C(N)=O)cn2)cc1-c1cccc(Cl)c1` [Example 271, 1-{[5-(3-Chlorophenyl)-6-methoxypyridin-3-yl]methyl}-1H-pyrazole-4-carboxamide], the EC50 is 100 to 1000 nM.
The value for `COc1nc(C)c(Cn2cncn2)cc1-c1cccc(Cl)c1` [Example 112, 3-(3-Chlorophenyl)-2-methoxy-6-methyl-5-(1H-1,2,4-triazol-1-ylmethyl)pyridine] was 100 to 1000 nM; that for `COc1ncc(Cc2cnc(C(N)=O)nc2)cc1-c1cccc(F)c1` [Example 118, 5-{[5-(3-Fluorophenyl)-6-methoxypyridin-3-yl]methyl}pyrimidine-2-carboxamide] was 100 to 1000 nM; that for `CCOc1ncc(Cn2cnc(COC)n2)cc1-c1cccc(OC(F)F)c1` [Example 165, 3-[3-(Difluoromethoxy)phenyl]-2-ethoxy-5-{[3-(methoxymethyl)-1H-1,2,4-triazol-1-yl]methyl}pyridine] was under 100 nM.
Molecule `COc1ncc(Cc2cnc(C(=O)O)nc2)cc1-c1cccc(Cl)c1` [Example 23, 5-{[5-(3-Chlorophenyl)-6-methoxypyridin-3-yl]methyl}pyrimidine-2-carboxylic acid] showed a concentration for a half-maximal effect (EC50) of 1000 to 10000 nM.
Molecule `COc1ncc(Cn2cncn2)nc1-c1cccc(Cl)c1` [Example 130, 3-(3-Chlorophenyl)-2-methoxy-5-(1H-1,2,4-triazol-1-ylmethyl)pyrazine] registered an EC50 of 100 to 1000 nM.
`CC(C)(O)c1ccc(Cc2cnc(OC(F)F)c(-c3cccc(Cl)c3)c2)cn1` [Example 252, 2-(5-{[5-(3-Chlorophenyl)-6-(difluoromethoxy)pyridin-3-yl]methyl}pyridin-2-yl)propan-2-ol]: the concentration giving a half-maximal response (EC50) is 100 to 1000 nM.
Take `CCOc1ncc(Cn2ncnc2C(F)(F)F)cc1-c1cccc(OC(F)F)c1` [Example 164, 3-[3-(Difluoromethoxy)phenyl]-2-ethoxy-5-{[5-(trifluoromethyl)-1H-1,2,4-triazol-1-yl]methyl}pyridine]: the EC50 fell in the range of 100 to 1000 nM.
`COc1ncc(Cc2cnc(C(N)=O)nc2)nc1-c1cccc(OC(F)F)c1` [Example 125, 5-({6-[3-(Difluoromethoxy)phenyl]-5-methoxypyrazin-2-yl}methyl)pyrimidine-2-carboxamide] showed an EC50 of under 100 nM.
As to `COc1ncc(Cn2cnc(C(F)F)n2)cc1-c1ccnc(OC(F)F)c1` [Example 261, 3-[2-(Difluoromethoxy)pyridin-4-yl]-5-{[3-(difluoromethyl)-1H-1,2,4-triazol-1-yl]methyl}-2-methoxypyridine], the EC50 was under 100 nM.
`COc1ncc(Cc2ccc(N)nc2)cc1-c1cccc(Cl)c1` [Example 30, 5-{[5-(3-Chlorophenyl)-6-methoxypyridin-3-yl]methyl}pyridin-2-amine]: the half-maximal effective concentration (EC50) was under 100 nM.
`COc1ncc(Cc2ccc(NC(N)=O)cc2)cc1-c1cccc(Cl)c1` [Example 26, (4-{[5-(3-Chlorophenyl)-6-methoxypyridin-3-yl]methyl}phenyl)urea] registered an EC50 of 100 to 1000 nM.
Consider `CCOc1ncc(Cn2cnc([N+](=O)[O-])n2)nc1-c1cccc(OC(F)F)c1` [Example 193, 3-(3-(Difluoromethoxy)phenyl)-2-ethoxy-5-((3-nitro-1H-1,2,4-triazol-1-yl)methyl)pyrazine], for which the EC50 was in the range of 1000 to 10000 nM.
As for `Nc1ccc(Cc2cnc(OC(F)F)c(-c3cccc(Cl)c3)c2)nn1` [Example 111, 6-{[5-(3-Chlorophenyl)-6-(difluoromethoxy)pyridin-3-yl]methyl}pyridazin-3-amine], the EC50 was 100 to 1000 nM.
The molecule `COc1ncc(Cn2cnc(N)n2)cc1-c1cccc(C#N)c1` [Example 223, 3-{5-[(3-Amino-1H-1,2,4-triazol-1-yl)methyl]-2-methoxypyridin-3-yl}benzonitrile] had a concentration for a half-maximal effect (EC50) of 100 to 1000 nM.
`COc1ncc(Cn2cc(C)cn2)nc1-c1cccc(Cl)c1` [Example 184, 3-(3-Chlorophenyl)-2-methoxy-5-[(4-methyl-1H-pyrazol-1-yl)methyl]pyrazine] gave a 50% effective concentration (EC50) of 1000 to 10000 nM.
The value for `CNC(=O)c1ccc(Cc2cnc(OC(F)F)c(-c3cccc(Cl)c3)c2)cn1` [Example 244, 5-{[5-(3-Chlorophenyl)-6-(difluoromethoxy)pyridin-3-yl]methyl}-N-methylpyridine-2-carboxamide] was 100 to 1000 nM; that for `COc1ncc(Cn2cnc(C(F)(F)F)n2)cc1-c1cccc(Cl)c1` [Example 146, 3-(3-Chlorophenyl)-2-methoxy-5-{[3-(trifluoromethyl)-1H-1,2,4-triazol-1-yl]methyl}pyridine] was 100 to 1000 nM.
